Source: patent US20260258025A1, “INHIBITORS OF TDP-43 AND TAU AGGREGATION” (Aquinnah Pharmaceuticals, inc., priority 2023, published 2026)

system: TDP-43 aggregation; assay: TDP-43 aggregation assay in SY5Y TDP-43WT cells (high content imaging); type: cell-based; settings: Homo sapiens, tetracycline induction 24 hrs, 1 hour compound pre-treatment, sodium arsenite 23 hrs, 8-point dose curve, percentage of cells with TDP-43 aggregates, read-out: IC50, Inhibition of TDP-43 Aggregation
Protocol: Exemplary compounds disclosed herein were evaluated for efficacy in inhibiting TDP-43 inclusions cellular imaging-based assays.
The cellular model was in human neuroblastoma SH SYSY cells (ATCC, cat #: CRL-2266). The parent cell line was first engineered to stably express a tetracycline repressor protein (designated as TREx-SY5Y cells, customer cell line development by ThermoFisher). Wild-type human TDP-43 with a C-terminus eGFP tag was synthesized and cloned into pcDNA5/TO expression vector (ThermoFisher). The plasmid was transfected into TREx-SY5Y cells using Lipofectamine 2000 and hygromycin resistant colonies were selected. Expression of TDP-43WT::eGFP was examined under fluorescent microscopy and Western blot upon tetracycline induction. The clone that was used for TDP-43 aggregation assay is referred to as SY5Y TDP-43WT cells hereafter.
Compound inhibition of TDP-43 aggregation was tested in an 8-point dose curve in 96-well format. Briefly, TDP-43WT::eGFP expression was induced with […] for 24 hrs (SY5Y TDP-43WT cells). The cells were then pre-treated for 1 hour with exemplary compounds before adding sodium arsenite to a final concentration of […] and incubated for another 23 hrs. At the end of the treatment the cell monolayers were washed in PBS and fixed in 4% paraformaldehyde (PFA), diluted from 16% stock (Electron Microscopy Sciences cat: #15710-S). The inhibitory effect on TDP-43 aggregation was measured using CellInsight CX7 high content imager (ThermoFisher). The percentage of cells with TDP-43 aggregates was calculated based on the total number of cells identified by DAPI staining. An 8-point dose response curve was generated, and the IC50 for each compound tested was determined (Table 3).
In Table 3 below, A indicates an IC50 (nM)<500 nM, B indicates an IC50 (nM) 500 nM to <1000 nM, C indicates an IC50 (nM) 1000 nM to <2000 nM, D indicates an IC50 (nM) 2000 nM to <6000 nM, and E indicates an IC50 (nM) 6000 nM to ≤10000 nM.

Row | IC50 [nM] | SMILES
1 | < 500 | N[C@H]1CCN(C(=O)c2sc(-c3ccc(C4CCN(C5CCOCC5)CC4)cc3)cc2Br)C1 [Compound 255, (S)-(3-aminopyrrolidin-1-yl)(3-bromo-5-(4-(1-(tetrahydro-2H-pyran-4-yl)piperidin-4-yl)phenyl)thiophen-2-yl)methanone]
2 | < 500 | CC(C)(O)CN1CCC(c2ccc(-c3cc(Cl)c(C(=O)N4CC[C@H](N)C4)s3)cc2F)CC1 [Compound 256, (S)-(3-aminopyrrolidin-1-yl)(3-chloro-5-(3-fluoro-4-(1-(2-hydroxy-2-methylpropyl)piperidin-4-yl)phenyl)thiophen-2-yl)methanone]
3 | < 500 | Cc1cc(-c2ccc(C3CCN(CC(C)(C)O)CC3)c(F)c2)sc1C(=O)N1CC[C@H](N)C1 [Compound 257, (S)-(3-aminopyrrolidin-1-yl)(5-(3-fluoro-4-(1-(2-hydroxy-2-methylpropyl)piperidin-4-yl)phenyl)-3-methylthiophen-2-yl)methanone]
4 | < 500 | COCCN1CCC(c2ccc(-c3cc(Cl)c(C(=O)N4CC[C@H](N)C4)s3)cc2)CC1 [Compound 258, (S)-(3-aminopyrrolidin-1-yl)(3-chloro-5-(4-(1-(2-methoxyethyl)piperidin-4-yl)phenyl)thiophen-2-yl)methanone]
5 | 2000 to 6000 | COc1cc(C2CCN(C3CCOCC3)CC2)ccc1-c1cc(C)c(C(=O)N2CC[C@H](N)C2)s1 [Compound 259, (S)-(3-aminopyrrolidin-1-yl)(5-(2-methoxy-4-(1-(tetrahydro-2H-pyran-4-yl)piperidin-4-yl)phenyl)-3-methylthiophen-2-yl)methanone]
6 | 1000 to 2000 | COc1cc(-c2cc(C)c(C(=O)N3CC[C@H](N)C3)s2)ccc1C1CCN(C2CCOCC2)CC1 [Compound 260, (S)-(3-aminopyrrolidin-1-yl)(5-(3-methoxy-4-(1-(tetrahydro-2H-pyran-4-yl)piperidin-4-yl)phenyl)-3-methylthiophen-2-yl)methanone]
7 | 1000 to 2000 | Cc1cc(-c2ccc(C3CCN(C4CCOCC4)CC3)c(OC(F)(F)F)c2)sc1C(=O)N1CC[C@H](N)C1 [Compound 261, (S)-(3-aminopyrrolidin-1-yl)(3-methyl-5-(4-(1-(tetrahydro-2H-pyran-4-yl)piperidin-4-yl)-3-(trifluoromethoxy)phenyl)thiophen-2-yl)methanone]
8 | < 500 | Cc1cc(-c2ccc(C3CCN(CCO)CC3)c(F)c2)sc1C(=O)N1CC[C@H](N)C1 [Compound 262, (S)-(3-aminopyrrolidin-1-yl)(5-(3-fluoro-4-(1-(2-hydroxyethyl)piperidin-4-yl)phenyl)-3-methylthiophen-2-yl)methanone]
9 | < 500 | N[C@H]1CCN(C(=O)c2sc(-c3ccc(C4CCN(CCO)CC4)c(F)c3)cc2Cl)C1 [Compound 263, (S)-(3-aminopyrrolidin-1-yl)(3-chloro-5-(3-fluoro-4-(1-(2-hydroxyethyl)piperidin-4-yl)phenyl)thiophen-2-yl)methanone]
10 | < 500 | Cc1cc(-c2ccc(C3CCN(C4COC4)CC3)c(F)c2)sc1C(=O)N1CC[C@H](N)C1 [Compound 264, (S)-(3-aminopyrrolidin-1-yl)(5-(3-fluoro-4-(1-(oxetan-3-yl)piperidin-4-yl)phenyl)-3-methylthiophen-2-yl)methanone]
11 | < 500 | N[C@H]1CCN(C(=O)c2sc(-c3ccc(C4CCN(C5COC5)CC4)c(F)c3)cc2Cl)C1 [Compound 265, (S)-(3-aminopyrrolidin-1-yl)(3-chloro-5-(3-fluoro-4-(1-(oxetan-3-yl)piperidin-4-yl)phenyl)thiophen-2-yl)methanone]
12 | < 500 | CCN1CCC(c2ccc(-c3cc(Cl)c(C(=O)N4CC[C@H](N)C4)s3)cc2F)CC1 [Compound 266, (S)-(3-aminopyrrolidin-1-yl)(3-chloro-5-(4-(1-ethylpiperidin-4-yl)-3-fluorophenyl)thiophen-2-yl)methanone]
13 | < 500 | N[C@H]1CCN(C(=O)c2sc(-c3ccc(C4CCN(C5CCOC5)CC4)c(F)c3)cc2Cl)C1 (stereo partly drawn) [Compound 267, ((S)-3-aminopyrrolidin-1-yl)(3-chloro-5-(3-fluoro-4-(1-(tetrahydrofuran-3-yl)piperidin-4-yl)phenyl)thiophen-2-yl)methanone]
14 | < 500 | COCCCN1CCC(c2ccc(-c3cc(Cl)c(C(=O)N4CC[C@H](N)C4)s3)cc2F)CC1 [Compound 268, (S)-(3-aminopyrrolidin-1-yl)(3-chloro-5-(3-fluoro-4-(1-(3-methoxypropyl)piperidin-4-yl)phenyl)thiophen-2-yl)methanone]
15 | < 500 | N[C@H]1CCN(C(=O)c2sc(-c3ccc(C4CCN(C5CCCCC5)CC4)c(F)c3)cc2Cl)C1 [Compound 269, (S)-(3-aminopyrrolidin-1-yl)(3-chloro-5-(4-(1-cyclohexylpiperidin-4-yl)-3-fluorophenyl)thiophen-2-yl)methanone]
16 | < 500 | N[C@H]1CCN(C(=O)c2sc(-c3ccc(C4CCN(C5CCCC5)CC4)c(F)c3)cc2Cl)C1 [Compound 270, (S)-(3-aminopyrrolidin-1-yl)(3-chloro-5-(4-(1-cyclopentylpiperidin-4-yl)-3-fluorophenyl)thiophen-2-yl)methanone]

More lines, now with the values behind:

Row | SMILES | IC50 [nM]
17 | Cc1cc(-c2ccc(C3=CCOCC3)cc2)sc1C(=O)N1CC[C@H](N)C1 [Compound 236] | < 500
18 | Cc1cc(-c2ccc(C3CCCCC3)cc2)sc1C(=O)N1CC[C@H](N)C1 [Compound 238] | 6000 to 10000
19 | Cc1cc(-c2ccc(N3CCOCC3)cc2)sc1C(=O)N1CC[C@H](N)C1 [Compound 239] | 500 to 1000
20 | Cc1cc(-c2ccc(C3CCCC3)cc2)sc1C(=O)N1CC[C@H](N)C1 [Compound 241] | 6000 to 10000
21 | Cc1cc(-c2ccc(-c3cn[nH]c3)cc2)sc1C(=O)N1CC[C@H](N)C1 [Compound 242] | < 500
22 | Cc1cc(-c2ccc(C3CCOCC3)cc2)sc1C(=O)N1CC[C@H](N)C1 [Compound 243] | < 500
23 | Cc1cc(-c2ccc(Cl)c(Cl)c2)sc1C(=O)N1CC[C@H](N)C1 [Compound 244] | 2000 to 6000
24 | Cc1cc(-c2cc(Cl)cc(Cl)c2)sc1C(=O)N1CC[C@H](N)C1 [Compound 245] | 6000 to 10000
25 | Cc1cc(-c2ccc3ccccc3c2)sc1C(=O)N1CC[C@H](N)C1 [Compound 246] | 6000 to 10000
26 | Cc1cc(-c2ccc3c(c2)CCCC3)sc1C(=O)N1CC[C@H](N)C1 [Compound 247] | 6000 to 10000
27 | COCCN1CCC(c2ccc(-c3cc(C)c(C(=O)N4CC[C@H](N)C4)s3)cc2Cl)CC1 [Compound 248, (S)-(3-aminopyrrolidin-1-yl)(5-(3-chloro-4-(1-(2-methoxyethyl)piperidin-4-yl)phenyl)-3-methylthiophen-2-yl)methanone] | 500 to 1000
28 | COC(C)(C)CN1CCC(c2ccc(-c3cc(Cl)c(C(=O)N4CC[C@H](N)C4)s3)cc2F)CC1 [Compound 249, (S)-(3-aminopyrrolidin-1-yl)(3-chloro-5-(3-fluoro-4-(1-(2-methoxy-2-methylpropyl)piperidin-4-yl)phenyl)thiophen-2-yl)methanone] | < 500
29 | COC(C)CN1CCC(c2ccc(-c3cc(Cl)c(C(=O)N4CC[C@H](N)C4)s3)cc2F)CC1 (stereo partly drawn) [Compound 250, ((S)-3-aminopyrrolidin-1-yl)(3-chloro-5-(3-fluoro-4-(1-(2-methoxypropyl)piperidin-4-yl)phenyl)thiophen-2-yl)methanone] | < 500
30 | COC(C)CN1CCC(c2ccc(-c3cc(C)c(C(=O)N4CC[C@H](N)C4)s3)cc2F)CC1 (stereo partly drawn) [Compound 251, ((S)-3-aminopyrrolidin-1-yl)(5-(3-fluoro-4-(1-(2-methoxypropyl)piperidin-4-yl)phenyl)-3-methylthiophen-2-yl)methanone] | < 500
31 | N[C@H]1CCN(C(=O)c2sc(-c3ccc(C4CCN(C5CCOCC5)CC4)c(Cl)c3)cc2OC(F)(F)F)C1 [Compound 252, (S)-(3-aminopyrrolidin-1-yl)(5-(3-chloro-4-(1-(tetrahydro-2H-pyran-4-yl)piperidin-4-yl)phenyl)-3-(trifluoromethoxy)thiophen-2-yl)methanone] | 6000 to 10000
32 | COCCN1CCC(c2ccc(-c3cc(Cl)c(C(=O)N4CC[C@H](N)C4)s3)cc2Cl)CC1 [Compound 253, (S)-(3-aminopyrrolidin-1-yl)(3-chloro-5-(3-chloro-4-(1-(2-methoxyethyl)piperidin-4-yl)phenyl)thiophen-2-yl)methanone] | < 500
33 | COC(C)(C)CN1CCC(c2ccc(-c3cc(C)c(C(=O)N4CC[C@H](N)C4)s3)cc2F)CC1 [Compound 254, (S)-(3-aminopyrrolidin-1-yl)(5-(3-fluoro-4-(1-(2-methoxy-2-methylpropyl)piperidin-4-yl)phenyl)-3-methylthiophen-2-yl)methanone] | < 500
